≈ marks a conversion by molar mass, not a printed value.
Experiments:
[1] = tested on: Anas platyrhynchos; settings: acute; oral; unspecified; mortality
[2] = tested on: Colinus virginianus; settings: acute, oral, mortality
[3] = tested on: Coturnix japonica; settings: reproduction developmental; duration: 20 weeks
[4] = tested on: Daphnia magna; settings: acute; duration: 48 hours; mortality
[5] = tested on: Oncorhynchus mykiss; settings: acute; duration: 96 hours; mortality
[6] = tested on: Oryctolagus sp.; settings: subchronic; duration: 90 days; oral; hematological
[7] = tested on: Rattus norvegicus; settings: acute; oral; mortality
[8] = tested on: Tagia sp.; settings: acute; duration: 14 days; mortality

`O=c1oc2ccccc2c(O)c1C(CC(O)c1ccc(-c2ccc(Br)cc2)cc1)c1ccccc1` (centres undefined) [Bromadiolone] was tested, and the LD50 [1] was 1290 mg/kg, the LD50 ([2]; duration: 5 days, diet) was 8.3 mg/kg-day and the LD50 [2] was 138 mg/kg. It also gave an NOEL [3] of 0.011 mg/kg-day, an LC50 [4] of 2 µg/mL (≈ 3.79 µM) and an LC50 [5] greater than 8 µg/mL. For the same molecule, the NOAEL [6] was 0.5 mg/kg-day, the LD50 [7] was less than 0.84 mg/kg and the LC50 [8] was greater than 4.74 mg/kg.

Source: EPA's ToxValDB 9.5 (doi:10.2903/j.efsa.2010.1783)
